Reference: article PMC5399635 (The Journal of Pharmacology and Experimental Therapeutics, 2017)
“Also recorded” adds a separate entry of the source. Like-named read-outs stand apart in the source and are kept apart here.

What was measured:
[1] = biological target: T1, human δ-opioid receptor (Homo sapiens, UniProt P41143); experiment: [35S]GTPγS functional assay, δ-opioid receptor (CHO membranes); type: biochemical; settings: agonist mode, relative to DPDPE 10 µM; single experiment
T1 construct: expressed in transfected cells; host or cells: CHO cells

[2] = biological target: T2, human κ-opioid receptor (Homo sapiens, UniProt P41145); experiment: [35S]GTPγS functional assay, κ-opioid receptor (HEK-293 membranes); type: biochemical
T2 construct: expressed in transfected cells; host or cells: HEK-293 cells
Description: (§1) These were single experiments conducted across a range of 12 half-log concentrations, from […], with 1 replicate per concentration; experimental conditions were as described for [^35S]GTPγS binding experiments with human recombinant µ-opioid receptors. Functional activity at κ-opioid receptors was also determined in an isolated tissue preparation from the rabbit vas deferens, using methods detailed previously ([Oka et al., 1981]).

[3] = biological target: T3, κ-opioid receptors (Oryctolagus cuniculus, UniProt G1SJ19); experiment: Isolated field-stimulated rabbit vas deferens assay; settings: concentrations up to 10 µM
T3 construct: isolated tissue preparation from the rabbit vas deferens; from tissue; host or cells: rabbit vas deferens
Description: as §1

[4] = test system: Caco2 cells
[5] = test system: opioid-induced constipation; set-up: method as in Chey et al., 2014; settings: two trials, ref Chey et al., 2014, cited from earlier work
[6] = test system: peripheral and central effects of morphine; set-up: method as in Eldon et al., 2015; settings: healthy male volunteers administered morphine; ref Eldon et al., 2015; cited from earlier work
[7] = test system: other transporters; set-up: method as in earlier work; settings: ref 2013 AstraZeneca unpublished data; cited from earlier work
[8] = In situ rat brain perfusion model; settings: 30 s perfusion, test compound 20 μM, atenolol 50 μM, antipyrine 5 μM, mean ± S.D.
[9] = test system: morphine-induced inhibition of gastrointestinal transit; experiment: Gastrointestinal transit model (charcoal meal), antagonism of morphine

T2 sequence (P41145 whole entry): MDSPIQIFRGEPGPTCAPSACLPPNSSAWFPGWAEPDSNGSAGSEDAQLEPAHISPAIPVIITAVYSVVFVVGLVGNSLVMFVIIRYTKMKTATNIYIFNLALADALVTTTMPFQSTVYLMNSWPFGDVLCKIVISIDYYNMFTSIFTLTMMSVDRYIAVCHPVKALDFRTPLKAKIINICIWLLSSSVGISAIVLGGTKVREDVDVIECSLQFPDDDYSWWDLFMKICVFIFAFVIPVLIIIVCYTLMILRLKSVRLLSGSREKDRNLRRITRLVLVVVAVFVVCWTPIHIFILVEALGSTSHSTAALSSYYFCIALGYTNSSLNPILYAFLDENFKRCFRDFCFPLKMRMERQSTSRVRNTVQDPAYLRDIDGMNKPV
T3 sequence (G1SJ19 1-383): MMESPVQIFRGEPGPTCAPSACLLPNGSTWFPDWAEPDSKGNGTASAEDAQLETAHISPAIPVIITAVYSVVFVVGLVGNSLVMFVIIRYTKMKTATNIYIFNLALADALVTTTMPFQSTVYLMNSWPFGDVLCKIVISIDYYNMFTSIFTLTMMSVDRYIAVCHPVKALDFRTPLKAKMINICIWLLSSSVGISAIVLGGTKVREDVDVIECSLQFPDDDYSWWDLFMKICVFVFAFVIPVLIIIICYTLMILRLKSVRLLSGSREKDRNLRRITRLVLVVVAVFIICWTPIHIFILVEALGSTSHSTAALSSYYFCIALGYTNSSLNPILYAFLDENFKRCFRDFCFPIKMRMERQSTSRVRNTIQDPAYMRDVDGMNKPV
T1 sequence (P41143 whole entry): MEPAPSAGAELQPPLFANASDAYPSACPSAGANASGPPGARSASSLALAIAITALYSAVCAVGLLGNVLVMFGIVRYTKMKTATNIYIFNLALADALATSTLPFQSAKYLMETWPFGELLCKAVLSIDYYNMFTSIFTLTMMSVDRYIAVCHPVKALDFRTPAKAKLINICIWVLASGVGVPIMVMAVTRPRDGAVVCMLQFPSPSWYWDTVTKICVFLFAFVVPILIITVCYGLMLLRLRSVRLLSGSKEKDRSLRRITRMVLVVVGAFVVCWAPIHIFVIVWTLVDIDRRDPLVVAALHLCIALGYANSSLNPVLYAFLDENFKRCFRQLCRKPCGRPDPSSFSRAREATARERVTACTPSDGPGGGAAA

Q: For `C=CCN1CC[C@]23c4c5ccc(O)c4O[C@H]2[C@@H](OCCOCCOCCOCCOCCOCCOCCOC)CC[C@@]3(O)[C@H]1C5` [Naloxegol, naloxegol], which agonism [1] is on record?
A: The agonism was “no agonism”.

Q: What about the IC50 ([2]; U69593 100 nM, read-out: IC50 (inhibition of response to U69593)) of the same compound?
A: Its IC50 is 37 nM.

Q: And the inhibition at 100 µM ([2]; at 100 µM, read-out: maximal inhibition of response to U69593)?
A: The inhibition at 100 µM was 62%.

Q: What about the EC50 ([2]; read-out: EC50 (agonism)) of the same compound?
A: The EC50 was 47 nM.

Q: And the Emax ([2]; read-out: maximal effect, agonism relative to U69593)?
A: Its Emax is 39%.

Q: What about the “agonist activity at κ-opioid receptors” value [3] of the same compound?
A: Its value is “no agonist activity”.

Q: And the “efflux transporter substrate status” value [4]?
A: Its value is “substrate for at least one apically directed efflux transporter, likely the P-gp transporter; also recorded: substrate for the P-glycoprotein transporter”.

Q: What about the “12-week response rate versus placebo” value ([5]; 12.5 mg once daily) of the same compound?
A: The value was “significantly higher than with placebo in only one trial”.

Q: What about the “12-week response rate versus placebo” value ([5]; 25 mg once daily) of the same compound?
A: The value was “Significantly more patients responded”.

Q: What about the “effect on morphine-induced miosis” value [6] of the same compound?
A: The value was “no change in morphine-induced miosis”.

Q: And the “effect on orocecal transit time” value [6]?
A: Its value is “reduced orocecal transit time”.

Q: What about the “substrate status for other transporters” value [7] of the same compound?
A: Its value is “not a substrate of other transporters”.

Q: And the “Brain Uptake” value [8]?
A: The value was 4.1 ± 1.4 pmol/g brain/s.

Q: And the “oral dose that completely reversed the effect of morphine” value ([9]; GI transit assay, rat)?
A: The value was 90 mg/kg.

Q: What about the ED50 ([9]; Rattus norvegicus, read-out: ED50, antagonism of morphine in GI transit) of the same compound?
A: Its ED50 is 23.1 mg/kg.

Q: What about the “times less potent than naloxone” value ([9]; comparison of ED50 values) of the same compound?
A: Its value is “approximately 33 fold”.

Q: What about the “separation in PNS versus CNS effect” value ([9]; rat, GI transit versus hot plate) of the same compound?
A: The value was “twofold”.
